Columns and labels:
Assay type in all cases: cell-based, human
MC-1R = assay: RT-PCR of MC-1R mRNA in keratinocytes put in contact with actives; settings: for stimulation of mRNA synthesis of the 3 receptors (MC-1R): positive controls in keratinocytes: TGF-β 1 ng/ml, TNF-α 100 ng/mL, IL-1α 50 pg/ml, quantitative RT-PCR (x2 or x.08 for the 3 inducers)
Source text: (§1) In particular, the extracts are obtained by macerating plants (preferably roots, rhizomes, stems, bark, flowers, fruits, seeds, germs, or leaves) at 1-10% (p/p), usually 1-5% in a solvent or a mixture of solvents, usually a mixture of water and alcohol, glycol, or polyol (such as ethanol, glycerol, butylene glycol and other glycols, xylitol, etc.) 100/0 to 0/100, and preferably in water. The extracts obtained are then filtered or distilled in order to recover the soluble portion, which is then filtered, preferably at 0.45 μm. Biotechnological hydrolysates are obtained via the fermentation of plant extracts in the presence of microorganisms usually from the family of lactic bacteria, in particular bactobacillus plantarum, or paracasei, and bifidobacterium, in particular longum or Saccharomyces. These hydrolysates are then filtered, preferably to 0.45 μm, in order to obtain the active components.
(§2) The characterized molecules are prepared via dissolution in a solvent, usually DMSO, ethanol, glycol, and in particular DMSO at a concentration of 0.1%.
(§3) The active components are tested for keratinocytes after dissolution in the culturing environment: usually between 0.1% and 2% (v/v) for plants and biotechnological hydrolysates and in particular from 0.5% to 1% and usually between 0.001% and 0.01% for characterized molecules. The present results are obtained with 1% in the culturing environment for plant extracts and biotechnological hydrolysates, and with 0.01% for characterized molecules.
(§4) Keratinocytes taken from plastic surgery on normal adults through enzymatic digestion have been amplified in a specific environment for keratinocytes and then seeded, for example at 50,000 per cm^2 in 24-well plates and cultivated in a single layer in a definite no-serum environment. Upon convergence, the cells are put in contact with diluted actives in the culturing environment, usually for 24 hours.
(§5) In parallel, an untreated control (environment alone) and 3 positive controls (TGF-β at 1 ng/ml, IL-1α at 50 pg/ml and TNF-α at 100 ng/mL) are usually carried out, for example on the same cultivation plate. TGF-β at 1 ng/ml, TNF-α at 100 ng/mL, and IL-1α at 50 pg/ml were previously tested and stimulation of mRNA synthesis of the 3 receptors induced by these 3 cytokins at these concentrations was verified through an analysis of mRNA, for example by quantatitive RT-PCR (x2 or x.08 for the 3 inducers). […]
(§6) The parameters of amplification have usually been the following: The technique of RT-PCR in real time is conducted with the “Quanti Tect SYBR Green RT-PCR” kit (Qiagen, France) on wells containing mRNA, in an OPTICON thermocycler, which carries out cycles of amplification. […] At the end of each cycle, fluorescence, which is proportional to the number of fragments amplified, is read. […]

MC-2R = assay: RT-PCR of MC-2R mRNA in keratinocytes put in contact with actives; settings: for stimulation of mRNA synthesis of the 3 receptors (MC-2R): positive controls in keratinocytes: TGF-β 1 ng/ml, TNF-α 100 ng/mL, IL-1α 50 pg/ml, quantitative RT-PCR (x2 or x.08 for the 3 inducers)
Source text: as §1, §2, §3, §4, §5, §6

μ opioid R = assay: RT-PCR of μ opioid R mRNA in keratinocytes put in contact with actives; settings: for stimulation of mRNA synthesis of the 3 receptors (μ opioid R): positive controls in keratinocytes: TGF-β 1 ng/ml, TNF-α 100 ng/mL, IL-1α 50 pg/ml, quantitative RT-PCR (x2 or x.08 for the 3 inducers)
Source text: as §1, §2, §3, §4, §5, §6

POMC = assay: RT-PCR of POMC mRNA in keratinocytes put in contact with actives; settings: mRNA vs untreated control, relative to actin, 24 hours, 1% plant extracts and biotechnological hydrolysates, 0.01% characterized molecules
Source text: as §1, with “components. […]” for “components.”
as §6

[1] = mRNA vs untreated control, relative to actin, keratinocytes, 24 hours, 1% plant extracts and biotechnological hydrolysates, 0.01% characterized molecules

Molecule | MC-1R Control X: (MC-1R; [1]) | MC-2R Control X: (MC-2R; [1]) | μ opioid R Control X: (μ opioid R; [1]) | POMC Control X: (POMC) | stimulation of mRNA synthesis of the 3 receptors (MC-1R) (MC-1R) | stimulation of mRNA synthesis of the 3 receptors (MC-2R) (MC-2R) | stimulation of mRNA synthesis of the 3 receptors (μ opioid R) (μ opioid R)
CC1=CC(=O)C2=C(C)CC(OC(=O)Cc3ccccc3)C3C(C)C(=O)OC3C12 (stereo not shown) [phenylacetic acid 3,6,9-trimethyl-2,7-dioxo-2,3,3a,4,5,7,9a,9b-octahydro-azuleno[4,5-b]furan-4-yl] | 20.0 Control X | 20.0 Control X | 1.0 Control X | 1 Control X |  |  | 
IL-1α: cytokine used as positive control at 50 pg/ml |  |  |  |  | stimulation | stimulation | stimulation
TGF-β |  |  |  |  | stimulation | stimulation | stimulation
TNF-α |  |  |  |  | stimulation | stimulation | stimulation

From US20100272699A1, “MC-1R, MC-2R, and/or µ OPIOID RECEPTORS STIMULATION” (BASF BEAUTY CARE SOLUTIONS FRANCE S.A.S., priority 2007, published 2010)
